{
  "source": "paper PMC4685510",
  "about": "“A Cell Biologist’s Field Guide to Aurora Kinase Inhibitors” (Frontiers in Oncology, 2015)",
  "experiment_in_all_cases": "biochemical",
  "assay_type_in_all_cases": "biochemical",
  "key": {"[1]": {"molecular_target": "363 human kinases (including Aurora A/B/C) (Homo sapiens, UniProt P41279)", "sequence (P41279 whole entry)": "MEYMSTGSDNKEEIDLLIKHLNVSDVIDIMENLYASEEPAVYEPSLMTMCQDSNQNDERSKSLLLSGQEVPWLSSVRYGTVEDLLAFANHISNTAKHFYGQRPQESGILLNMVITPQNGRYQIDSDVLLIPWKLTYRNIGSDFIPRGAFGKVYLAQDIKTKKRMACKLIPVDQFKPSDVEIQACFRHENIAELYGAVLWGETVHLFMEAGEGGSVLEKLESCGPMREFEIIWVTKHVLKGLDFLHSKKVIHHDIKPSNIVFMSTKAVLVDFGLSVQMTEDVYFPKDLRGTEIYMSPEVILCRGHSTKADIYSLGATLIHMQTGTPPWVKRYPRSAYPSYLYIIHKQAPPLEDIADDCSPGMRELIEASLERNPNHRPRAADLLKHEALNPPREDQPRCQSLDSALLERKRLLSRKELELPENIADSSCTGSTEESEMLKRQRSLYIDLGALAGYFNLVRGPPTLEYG", "conditions": "COT1/MAP3K8, [ATP] 50 µM; for remaining activity at 0.1 µM: 100 nM; for remaining activity at 0.1 µM / remaining activity at 0.5 µM: read-out: % Enzyme Activity (relative to DMSO controls)", "description": "(§1) However, the Aurora A/B selectivity ratios derived from our in vitro and in vivo data can be compared to prioritize inhibitors."}, "[2]": {"molecular_target": "363 human kinases (including Aurora A/B/C) (Homo sapiens, UniProt Q14012)", "sequence (Q14012 whole entry)": "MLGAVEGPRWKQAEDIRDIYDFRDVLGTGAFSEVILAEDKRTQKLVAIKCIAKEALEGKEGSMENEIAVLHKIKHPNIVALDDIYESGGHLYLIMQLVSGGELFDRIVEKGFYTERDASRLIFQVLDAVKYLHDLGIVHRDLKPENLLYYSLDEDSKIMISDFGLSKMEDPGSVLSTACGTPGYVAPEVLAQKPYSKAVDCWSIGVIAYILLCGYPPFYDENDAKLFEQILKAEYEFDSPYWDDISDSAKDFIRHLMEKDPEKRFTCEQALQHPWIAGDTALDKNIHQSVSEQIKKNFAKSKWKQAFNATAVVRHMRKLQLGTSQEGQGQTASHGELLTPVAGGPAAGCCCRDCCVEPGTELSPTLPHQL", "conditions": "CAMK1a, [ATP] 20 µM; for remaining activity at 0.1 µM: 100 nM; for remaining activity at 0.1 µM / remaining activity at 0.5 µM: read-out: % Enzyme Activity (relative to DMSO controls)", "description": "as §1"}, "[3]": {"molecular_target": "T1, 363 human kinases (including Aurora A/B/C) (Homo sapiens, UniProt Q8IWQ3)", "T1 sequence (Q8IWQ3 1-736)": "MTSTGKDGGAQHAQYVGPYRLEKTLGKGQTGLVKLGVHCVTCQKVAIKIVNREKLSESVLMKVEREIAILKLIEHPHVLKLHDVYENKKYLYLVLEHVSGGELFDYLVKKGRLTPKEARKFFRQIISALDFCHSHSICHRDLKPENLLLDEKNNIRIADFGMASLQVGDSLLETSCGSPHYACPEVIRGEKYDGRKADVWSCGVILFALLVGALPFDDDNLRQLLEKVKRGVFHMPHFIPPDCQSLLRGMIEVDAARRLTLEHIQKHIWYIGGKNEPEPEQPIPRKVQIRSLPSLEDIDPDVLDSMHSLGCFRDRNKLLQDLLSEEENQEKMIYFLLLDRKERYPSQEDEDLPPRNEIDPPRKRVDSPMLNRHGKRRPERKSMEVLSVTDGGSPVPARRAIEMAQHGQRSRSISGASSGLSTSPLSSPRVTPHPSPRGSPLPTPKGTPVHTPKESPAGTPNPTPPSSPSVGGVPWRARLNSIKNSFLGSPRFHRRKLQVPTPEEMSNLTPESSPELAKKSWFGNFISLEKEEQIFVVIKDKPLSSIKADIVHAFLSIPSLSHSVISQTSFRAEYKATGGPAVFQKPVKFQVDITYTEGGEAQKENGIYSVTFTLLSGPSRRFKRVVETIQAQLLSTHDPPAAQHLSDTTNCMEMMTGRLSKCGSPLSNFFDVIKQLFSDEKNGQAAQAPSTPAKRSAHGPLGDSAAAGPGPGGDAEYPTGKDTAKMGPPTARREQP", "conditions": "BRSK2, [ATP] 50 µM; for remaining activity at 0.1 µM: 100 nM; for remaining activity at 0.1 µM / remaining activity at 0.5 µM: read-out: % Enzyme Activity (relative to DMSO controls)", "description": "as §1"}, "[4]": {"molecular_target": "363 human kinases (including Aurora A/B/C) (Homo sapiens, UniProt O94921)", "sequence (O94921 whole entry)": "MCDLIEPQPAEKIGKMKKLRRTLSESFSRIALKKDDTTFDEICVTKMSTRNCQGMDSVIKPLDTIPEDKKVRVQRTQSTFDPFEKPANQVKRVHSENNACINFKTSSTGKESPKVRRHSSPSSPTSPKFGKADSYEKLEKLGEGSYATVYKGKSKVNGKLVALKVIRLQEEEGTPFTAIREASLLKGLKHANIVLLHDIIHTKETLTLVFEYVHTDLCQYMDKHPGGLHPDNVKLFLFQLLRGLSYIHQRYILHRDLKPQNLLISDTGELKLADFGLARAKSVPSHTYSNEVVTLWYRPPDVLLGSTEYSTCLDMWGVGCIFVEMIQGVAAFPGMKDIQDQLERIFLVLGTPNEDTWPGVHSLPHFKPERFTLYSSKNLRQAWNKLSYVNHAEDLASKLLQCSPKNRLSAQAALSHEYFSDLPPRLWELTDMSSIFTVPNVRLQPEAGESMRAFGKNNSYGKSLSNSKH", "conditions": "CDK14/cyclin Y (PFTK1), [ATP] 10 µM; for remaining activity at 0.1 µM: 100 nM; for remaining activity at 0.1 µM / remaining activity at 0.5 µM: read-out: % Enzyme Activity (relative to DMSO controls)", "description": "as §1"}, "[5]": {"molecular_target": "T2, 363 human kinases (including Aurora A/B/C) (Homo sapiens, UniProt O95382)", "T2 sequence (O95382 1-1288)": "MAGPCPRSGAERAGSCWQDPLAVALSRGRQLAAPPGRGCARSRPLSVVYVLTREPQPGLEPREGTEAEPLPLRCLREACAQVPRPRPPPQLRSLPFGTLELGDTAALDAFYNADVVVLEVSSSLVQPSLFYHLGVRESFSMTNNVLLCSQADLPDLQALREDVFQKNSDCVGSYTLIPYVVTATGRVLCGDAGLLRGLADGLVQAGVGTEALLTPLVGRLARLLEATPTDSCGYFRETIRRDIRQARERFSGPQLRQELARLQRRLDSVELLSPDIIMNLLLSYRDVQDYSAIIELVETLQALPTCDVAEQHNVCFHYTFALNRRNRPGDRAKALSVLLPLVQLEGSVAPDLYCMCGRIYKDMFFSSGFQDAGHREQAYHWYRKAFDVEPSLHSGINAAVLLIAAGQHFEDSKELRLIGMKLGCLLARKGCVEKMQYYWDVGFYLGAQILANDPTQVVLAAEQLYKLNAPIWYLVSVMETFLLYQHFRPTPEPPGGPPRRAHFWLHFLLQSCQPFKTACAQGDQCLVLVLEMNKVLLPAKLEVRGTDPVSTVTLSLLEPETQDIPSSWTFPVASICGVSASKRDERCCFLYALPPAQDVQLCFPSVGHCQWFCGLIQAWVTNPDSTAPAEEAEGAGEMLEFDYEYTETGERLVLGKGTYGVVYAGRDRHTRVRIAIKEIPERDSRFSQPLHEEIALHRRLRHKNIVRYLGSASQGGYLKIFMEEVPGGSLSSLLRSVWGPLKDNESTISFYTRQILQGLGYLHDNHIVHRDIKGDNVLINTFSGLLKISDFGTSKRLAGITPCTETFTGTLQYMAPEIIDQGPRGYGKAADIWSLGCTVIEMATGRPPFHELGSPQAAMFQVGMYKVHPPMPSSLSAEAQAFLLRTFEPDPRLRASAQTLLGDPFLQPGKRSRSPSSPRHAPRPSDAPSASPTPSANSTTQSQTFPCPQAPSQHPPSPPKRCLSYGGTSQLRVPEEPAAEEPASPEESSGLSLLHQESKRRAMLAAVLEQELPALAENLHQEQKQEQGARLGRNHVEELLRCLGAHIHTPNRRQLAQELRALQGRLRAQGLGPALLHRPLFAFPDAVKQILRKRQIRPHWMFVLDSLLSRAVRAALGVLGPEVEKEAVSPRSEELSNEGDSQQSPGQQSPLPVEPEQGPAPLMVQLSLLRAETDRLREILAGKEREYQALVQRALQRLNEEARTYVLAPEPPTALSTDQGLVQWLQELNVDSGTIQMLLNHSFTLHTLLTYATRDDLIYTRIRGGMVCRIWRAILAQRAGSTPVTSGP", "conditions": "MEKK6; for remaining activity at 0.1 µM: 100 nM; for remaining activity at 0.1 µM / remaining activity at 0.5 µM: read-out: % Enzyme Activity (relative to DMSO controls)", "description": "as §1"}, "[6]": {"molecular_target": "363 human kinases (including Aurora A/B/C) (Homo sapiens, UniProt Q6P5Z2)", "sequence (Q6P5Z2 whole entry)": "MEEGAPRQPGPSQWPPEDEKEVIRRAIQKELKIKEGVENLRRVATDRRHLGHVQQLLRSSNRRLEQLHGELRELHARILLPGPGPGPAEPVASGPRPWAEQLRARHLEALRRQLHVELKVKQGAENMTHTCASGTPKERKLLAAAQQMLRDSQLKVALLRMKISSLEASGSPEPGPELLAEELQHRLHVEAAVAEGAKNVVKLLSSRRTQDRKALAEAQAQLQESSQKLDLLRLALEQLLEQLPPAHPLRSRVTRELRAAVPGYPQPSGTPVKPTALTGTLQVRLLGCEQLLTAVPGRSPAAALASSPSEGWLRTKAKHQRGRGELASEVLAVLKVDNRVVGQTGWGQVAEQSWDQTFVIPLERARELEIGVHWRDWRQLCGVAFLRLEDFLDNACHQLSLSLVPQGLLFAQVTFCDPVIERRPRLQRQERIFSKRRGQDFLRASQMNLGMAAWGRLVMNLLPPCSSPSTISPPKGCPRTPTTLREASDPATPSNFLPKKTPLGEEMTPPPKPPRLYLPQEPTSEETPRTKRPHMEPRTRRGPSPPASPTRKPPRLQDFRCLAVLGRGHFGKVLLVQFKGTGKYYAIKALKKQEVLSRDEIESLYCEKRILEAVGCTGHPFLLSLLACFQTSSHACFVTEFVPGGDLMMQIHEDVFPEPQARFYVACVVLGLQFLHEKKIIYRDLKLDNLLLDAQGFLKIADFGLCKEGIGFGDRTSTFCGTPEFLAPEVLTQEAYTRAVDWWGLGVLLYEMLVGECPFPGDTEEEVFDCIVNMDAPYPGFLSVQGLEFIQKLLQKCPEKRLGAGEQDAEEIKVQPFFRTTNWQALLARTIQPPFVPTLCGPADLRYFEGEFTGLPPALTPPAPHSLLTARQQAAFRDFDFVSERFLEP", "conditions": "PKN3/PRK3; for remaining activity at 0.1 µM: 100 nM; for remaining activity at 0.1 µM / remaining activity at 0.5 µM: read-out: % Enzyme Activity (relative to DMSO controls)", "description": "as §1"}},
  "data": [
    {"compound": "O=C(O)[C@]1(Cc2cccc(Nc3nccs3)n2)CC[C@@H](Oc2cccc(Cl)c2F)CC1", "note": "[MK-5108]", "values": [
      {"measurement": "remaining activity at 0.1 µM", "setting": "[1]", "result": 101, "unit": "%"},
      {"measurement": "remaining activity at 0.5 µM", "setting": "[1]; 500 nM", "result": 91, "unit": "%"},
      {"measurement": "remaining activity at 0.1 µM", "setting": "[2]", "result": 102, "unit": "%"},
      {"measurement": "remaining activity at 0.5 µM", "setting": "[2]; 500 nM", "result": 97.1, "unit": "%"},
      {"measurement": "remaining activity at 0.1 µM", "setting": "[3]", "result": 92.7, "unit": "%"},
      {"measurement": "remaining activity at 0.5 µM", "setting": "[3]; 500 nM", "result": 78.7, "unit": "%"},
      {"measurement": "remaining activity at 0.1 µM", "setting": "[4]", "result": 102, "unit": "%"},
      {"measurement": "remaining activity at 0.5 µM", "setting": "[4]; 500 nM", "result": 103, "unit": "%"},
      {"measurement": "remaining activity at 0.1 µM", "setting": "[5]", "result": 99.6, "unit": "%"},
      {"measurement": "remaining activity at 0.5 µM", "setting": "[5]; 500 nM", "result": 97.4, "unit": "%"},
      {"measurement": "remaining activity at 0.1 µM", "setting": "[6]", "result": 90.8, "unit": "%"},
      {"measurement": "remaining activity at 0.5 µM", "setting": "[6]; 500 nM", "result": 88.2, "unit": "%"}
    ]},
    {"compound": "O=C(c1cccc(Cl)c1F)N1CCN(Cc2cccc(Nc3nccs3)n2)CC1", "note": "[MK-8745]", "values": [
      {"measurement": "% Enzyme Activity (relative to DMSO controls)", "setting": "[1]; 500 nM", "result": 88.35, "unit": "%"},
      {"measurement": "remaining activity at 0.5 µM", "setting": "[1]; 500 nM", "result": 91.3, "unit": "%"},
      {"measurement": "% Enzyme Activity (relative to DMSO controls)", "setting": "[2]; 500 nM", "result": 94.06, "unit": "%"},
      {"measurement": "remaining activity at 0.5 µM", "setting": "[2]; 500 nM", "result": 95.5, "unit": "%"},
      {"measurement": "% Enzyme Activity (relative to DMSO controls)", "setting": "[3]; 500 nM", "result": 107.67, "unit": "%"},
      {"measurement": "remaining activity at 0.5 µM", "setting": "[3]; 500 nM", "result": 109, "unit": "%"},
      {"measurement": "% Enzyme Activity (relative to DMSO controls)", "setting": "[4]; 500 nM", "result": 102.17, "unit": "%"},
      {"measurement": "remaining activity at 0.5 µM", "setting": "[4]; 500 nM", "result": 104, "unit": "%"},
      {"measurement": "% Enzyme Activity (relative to DMSO controls)", "setting": "[5]; 500 nM", "result": 83.68, "unit": "%"},
      {"measurement": "remaining activity at 0.5 µM", "setting": "[5]; 500 nM", "result": 87.7, "unit": "%"},
      {"measurement": "% Enzyme Activity (relative to DMSO controls)", "setting": "[6]; 500 nM", "result": 100.01, "unit": "%"},
      {"measurement": "remaining activity at 0.5 µM", "setting": "[6]; 500 nM", "result": 100, "unit": "%"}
    ]},
    {"compound": "CCn1cc(-c2ccnc3[nH]c(-c4cccc(CN(C)C)c4)cc23)c(-c2ccc(NC(=O)N(C)C)cc2)n1", "note": "[GSK1070916]", "values": [
      {"measurement": "remaining activity at 0.1 µM", "setting": "[1]", "result": 87.8, "unit": "%"},
      {"measurement": "remaining activity at 0.1 µM", "setting": "[2]", "result": 98.6, "unit": "%"},
      {"measurement": "remaining activity at 0.1 µM", "setting": "[3]", "result": 88.4, "unit": "%"},
      {"measurement": "remaining activity at 0.1 µM", "setting": "[4]", "result": 108, "unit": "%"},
      {"measurement": "remaining activity at 0.1 µM", "setting": "[5]", "result": 94.5, "unit": "%"},
      {"measurement": "remaining activity at 0.1 µM", "setting": "[6]", "result": 107, "unit": "%"}
    ]}
  ]
}
